Legend:
Gefitinib = compound: COc1cc2ncnc(Nc3ccc(F)c(Cl)c3)c2cc1OCCCN1CCOCC1 [Gefitinib]; conditions: max 10 µM
How it was run: (§1)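 Viability was measured with CellTiter-Glo 2.0 luminescence after 72 hours of dosing at a final DMSO of typically 0.2%, and scaled between blank-well and DMSO-well means. Beforehand, cancer cell lines sat 24 hours at 37°C and 5% CO2 in 1536-well plates in 7.5 μl DMEM/F12 or RPMI with 10% FBS. A non-linear mixed effects model fitted two-parameter logistic curves to the dose responses. The single-agent IC50 comes from these fits.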

Palbociclib = compound: CC(=O)c1c(C)c2cnc(Nc3ccc(N4CCNCC4)cn3)nc2n(C2CCCC2)c1=O [Palbociclib]; conditions: max 10 µM
How it was run: as §1

AZD2811 = compound: CCN(CCO)CCCOc1ccc2c(Nc3cc(CC(=O)Nc4cccc(F)c4)[nH]n3)ncnc2c1 [AZD2811]; conditions: max 1 µM
How it was run: as §1

Dasatinib = compound: CC1=C(C(=CC=C1)Cl)NC(=O)C2=CN=C(S2)NC3=CC(=NC(=N3)C)N4CCN(CC4)CCO [Dasatinib]; conditions: max 2 µM
How it was run: as §1

AZD5991 = compound: Cc1c2c(nn1C)CSCc1cc(n(C)n1)CSc1cc(c3ccccc3c1)OCCCc1c(C(=O)O)n(C)c3c-2c(Cl)ccc13 [AZD5991]; conditions: max 1 µM
How it was run: as §1

SN-38 = compound: CCc1c2c(nc3ccc(O)cc13)-c1cc3c(c(=O)n1C2)COC(=O)[C@]3(O)CC [SN-38]; conditions: max 0.3 µM
How it was run: as §1

Savolitinib = compound: C[C@@H](c1ccc2nccn2c1)n1nnc2ncc(-c3cnn(C)c3)nc21 [Savolitinib]; conditions: max 1 µM
How it was run: as §1

AZD0156 = compound: CN(C)CCCOc1ccc(-c2ccc3ncc4c(c3c2)n(C2CCOCC2)c(=O)n4C)cn1 [AZD0156]; conditions: max 3 µM
How it was run: as §1

Doxorubicin = compound: COc1cccc2c1C(=O)c1c(O)c3c(c(O)c1C2=O)C[C@@](O)(C(=O)CO)C[C@@H]3O[C@H]1C[C@H](N)[C@H](O)[C@H](C)O1 [Doxorubicin]; conditions: max 1 µM
How it was run: as §1

AZD4320 = compound: CN(CC[C@H](CSC1=CC=CC=C1)NC2=C(C=C(C=C2)S(=O)(=O)NC(=O)C3=CC=C(C=C3)N4CCC(CC4)[C@H](C5=CC=CC=C5C6=CC=C(C=C6)Cl)O)S(=O)(=O)C(F)(F)F)CCO [AZD4320]; conditions: max 1 µM
How it was run: as §1

AZD8186 = compound: C[C@@H](Nc1cc(F)cc(F)c1)c1cc(C(=O)N(C)C)cc2c(=O)cc(N3CCOCC3)oc12 [AZD8186]; conditions: max 3 µM
How it was run: as §1

AZD7648 = compound: Cc1cc2ncnn2cc1Nc1ncc2c(n1)n(C1CCOCC1)c(=O)n2C [AZD7648]; conditions: max 10 µM
How it was run: as §1

Trametinib = compound: CC(=O)Nc1cccc(-n2c(=O)n(C3CC3)c(=O)c3c(Nc4ccc(I)cc4F)n(C)c(=O)c(C)c32)c1 [Trametinib]; conditions: max 1 µM
How it was run: as §1

AZD5153 = compound: COc1nnc2ccc(N3CCC(c4ccc(OCCN5CCN(C)C(=O)[C@H]5C)cc4)CC3)nn12 [AZD5153]; conditions: max 1 µM
How it was run: as §1

Crizotinib = compound: C[C@@H](Oc1cc(-c2cnn(C3CCNCC3)c2)cnc1N)c1c(Cl)ccc(F)c1Cl [Crizotinib]; conditions: max 10 µM
How it was run: as §1

Prexasertib = compound: COc1cccc(OCCCN)c1-c1cc(Nc2cnc(C#N)cn2)n[nH]1 [Prexasertib]; conditions: max 1 µM
How it was run: as §1

AZD1390 = compound: CC(C)n1c(=O)n(C)c2cnc3cc(F)c(-c4ccc(OCCCN5CCCCC5)nc4)cc3c21 [AZD1390]; conditions: max 0.3 µM
How it was run: as §1

Lapatinib = compound: CS(=O)(=O)CCNCc1ccc(-c2ccc3ncnc(Nc4ccc(OCc5cccc(F)c5)c(Cl)c4)c3c2)o1 [Lapatinib]; conditions: max 10 µM
How it was run: as §1

Venetoclax = compound: CC1(C)CCC(CN2CCN(c3ccc(C(=O)NS(=O)(=O)c4ccc(NCC5CCOCC5)c([N+](=O)[O-])c4)c(Oc4cnc5[nH]ccc5c4)c3)CC2)=C(c2ccc(Cl)cc2)C1 [Venetoclax]; conditions: max 1 µM
How it was run: as §1

Olaparib = compound: O=C(c1cc(Cc2n[nH]c(=O)c3ccccc23)ccc1F)N1CCN(C(=O)C2CC2)CC1 [Olaparib]; conditions: max 10 µM
How it was run: as §1

SG3199 = compound: CC1=CN2[C@@H](C1)C=NC3=CC(=C(C=C3C2=O)OC)OCCCCCOC4=C(C=C5C(=C4)N=C[C@@H]6CC(=CN6C5=O)C)OC [SG3199]; conditions: max 0.001 µM
How it was run: as §1

Selumetinib = compound: Cn1cnc2c(F)c(Nc3ccc(Br)cc3Cl)c(C(=O)NOCCO)cc21 [Selumetinib]; conditions: max 10 µM
How it was run: as §1

Capivasertib = compound: C1CN(CCC1(C(=O)N[C@@H](CCO)C2=CC=C(C=C2)Cl)N)C3=NC=NC4=C3C=CN4 [Capivasertib]; conditions: max 10 µM
How it was run: as §1

AZD6738 = compound: C[C@@H]1COCCN1C2=NC(=NC(=C2)C3(CC3)[S@](=N)(=O)C)C4=C5C=CNC5=NC=C4 [AZD6738]; conditions: max 10 µM
How it was run: as §1

Taselisib = compound: Cc1nc(-c2cn3c(n2)-c2ccc(-c4cnn(C(C)(C)C(N)=O)c4)cc2OCC3)n(C(C)C)n1 [Taselisib]; conditions: max 10 µM
How it was run: as §1

AZD1775 = compound: C=CCn1c(=O)c2cnc(Nc3ccc(N4CCN(C)CC4)cc3)nc2n1-c1cccc(C(C)(C)O)n1 [AZD1775]; conditions: max 3 µM
How it was run: as §1

Alisertib = compound: COc1cc(Nc2ncc3c(n2)-c2ccc(Cl)cc2C(c2c(F)cccc2OC)=NC3)ccc1C(=O)O [Alisertib]; conditions: max 10 µM
How it was run: as §1

Cell Line | IC50, cell viability 72 h (Gefitinib) | IC50, cell viability 72 h (Palbociclib) | IC50, cell viability 72 h (AZD2811) | IC50, cell viability 72 h (Dasatinib) | IC50, cell viability 72 h (AZD5991) | IC50, cell viability 72 h (SN-38) | IC50, cell viability 72 h (Savolitinib) | IC50, cell viability 72 h (AZD0156) | IC50, cell viability 72 h (Doxorubicin) | IC50, cell viability 72 h (AZD4320) | IC50, cell viability 72 h (AZD8186) | IC50, cell viability 72 h (AZD7648) | IC50, cell viability 72 h (Trametinib) | IC50, cell viability 72 h (AZD5153) | IC50, cell viability 72 h (Crizotinib) | IC50, cell viability 72 h (Prexasertib) | IC50, cell viability 72 h (AZD1390) | IC50, cell viability 72 h (Lapatinib) | IC50, cell viability 72 h (Venetoclax) | IC50, cell viability 72 h (Olaparib) | IC50, cell viability 72 h (SG3199) | IC50, cell viability 72 h (Selumetinib) | IC50, cell viability 72 h (Capivasertib) | IC50, cell viability 72 h (AZD6738) | IC50, cell viability 72 h (Taselisib) | IC50, cell viability 72 h (AZD1775) | IC50, cell viability 72 h (Alisertib)
SNU-C2B (Colorectal Carcinoma) | > 10 µM | > 10 µM | > 1 µM | > 2 µM | > 1 µM | > 0.3 µM | > 1 µM | > 3 µM | > 1 µM | > 1 µM | > 3 µM | > 10 µM | > 1 µM | 0.788 µM | > 10 µM | 0.133 µM | > 0.3 µM | > 10 µM | > 1 µM | > 10 µM | > 0.001 µM | > 10 µM | > 10 µM | 7.63 µM | 8.21 µM | 1.12 µM | > 10 µM
BHT-101 (Thyroid Gland Carcinoma) | > 10 µM | 9.12 µM | > 1 µM | 1.1 µM | > 1 µM | 0.0309 µM | > 1 µM | > 3 µM | > 1 µM | > 1 µM | > 3 µM | > 10 µM | 0.0182 µM | 0.0601 µM | 8.67 µM | 0.293 µM | > 0.3 µM | > 10 µM | > 1 µM | > 10 µM | > 0.001 µM | 1.36 µM | > 10 µM | 9.26 µM | 6.45 µM | > 3 µM | 1.85 µM
MOLP-8 (Plasma Cell Myeloma) | > 10 µM | > 10 µM | > 1 µM | > 2 µM | 0.0485 µM | 0.0484 µM | > 1 µM | 1.74 µM | 0.407 µM | > 1 µM | > 3 µM | > 10 µM | > 1 µM | 0.0495 µM | 2.65 µM | 0.0245 µM | > 0.3 µM | > 10 µM | > 1 µM | > 10 µM | > 0.001 µM | > 10 µM | 8.91 µM | 3.83 µM | 0.439 µM | 0.465 µM | 5.24 µM
SiHa (Cervical Carcinoma) | > 10 µM | > 10 µM | > 1 µM | > 2 µM | > 1 µM | > 0.3 µM | > 1 µM | > 3 µM | > 1 µM | > 1 µM | > 3 µM | > 10 µM | > 1 µM | 0.444 µM | > 10 µM | > 1 µM | > 0.3 µM | > 10 µM | > 1 µM | > 10 µM | > 0.001 µM | > 10 µM | > 10 µM | > 10 µM | > 10 µM | > 3 µM | > 10 µM
Raji (Burkitt's Lymphoma) | > 10 µM | > 10 µM | > 1 µM | > 2 µM | 0.506 µM | 0.0043 µM | > 1 µM | > 3 µM | 0.114 µM | > 1 µM | > 3 µM | > 10 µM | > 1 µM | 0.371 µM | > 10 µM | 0.0187 µM | > 0.3 µM | > 10 µM | > 1 µM | > 10 µM | > 0.001 µM | > 10 µM | > 10 µM | 3.81 µM | > 10 µM | 0.472 µM | > 10 µM
DBTRG-05MG (Glioblastoma) | > 10 µM | > 10 µM | > 1 µM | > 2 µM | > 1 µM | > 0.3 µM | > 1 µM | > 3 µM | > 1 µM | > 1 µM | > 3 µM | > 10 µM | > 1 µM | > 1 µM | > 10 µM | > 1 µM | > 0.3 µM | > 10 µM | > 1 µM | > 10 µM | > 0.001 µM | > 10 µM | > 10 µM | > 10 µM | > 10 µM | > 3 µM | > 10 µM
MOLT-13 (T-Lymphoblastic Leukemia) | > 10 µM | 5.57 µM | 0.0427 µM | > 2 µM | 0.0528 µM | 0.00385 µM | > 1 µM | > 3 µM | 0.467 µM | 0.0338 µM | > 3 µM | > 10 µM | 0.459 µM | 0.0357 µM | 4.26 µM | 0.0165 µM | > 0.3 µM | 5.86 µM | 0.416 µM | > 10 µM | > 0.001 µM | 5.27 µM | > 10 µM | 2.37 µM | > 10 µM | 0.44 µM | 0.177 µM
AM-38 (Glioblastoma) | > 10 µM | > 10 µM | > 1 µM | > 2 µM | > 1 µM | 0.0227 µM | > 1 µM | > 3 µM | 0.694 µM | > 1 µM | > 3 µM | > 10 µM | 0.0717 µM | > 1 µM | > 10 µM | 0.126 µM | > 0.3 µM | > 10 µM | > 1 µM | > 10 µM | > 0.001 µM | 3.75 µM | > 10 µM | 4.8 µM | > 10 µM | 2.61 µM | > 10 µM

From the supplement of paper PMC11061612
